Test results: ChEMBL document CHEMBL1151841, “Dihydrostilbene derivatives from the Mongolian medicinal plant Scorzonera radiata” (J Nat Prod, 2009)
Active and inactive are the calls of the source. The rule behind the calls is not given here.

Experiments:
[1] = tested on: Radical scavenging activity; assay: Antioxidant activity assessed as DPPH radical scavenging activity after 5 mins; assay type: functional
L5178Y = assay: Cytotoxicity against mouse L5178Y cells at 10 ug/mL by MTT assay; assay type: functional, cell-based

SMILES | IC50 [1] [µM] | Activity (L5178Y)
COc1cc(CCc2c(O)ccc(O[C@@H]3O[C@H](CO)[C@@H](O)[C@H](O)[C@H]3O)c2C(C)=O)cc(-c2cc(CCc3c(O)ccc(O[C@@H]4O[C@H](CO)[C@@H](O)[C@H](O)[C@H]4O)c3C(C)=O)cc(OC)c2O)c1O [SCORZODIHYDROSTILBENE E] | 103 | 
Oc1ccc(/C=C/c2cc(O)cc(O)c2)cc1 [RESVERATROL] | 150 | 
COc1cc(CCc2c(O)ccc(O[C@@H]3O[C@H](CO)[C@@H](O)[C@H](O)[C@H]3O)c2C(C)=O)ccc1O [SCORZODIHYDROSTILBENE A] | 106 | inactive
COc1ccc(CCc2c(O[C@@H]3O[C@H](CO)[C@@H](O)[C@H](O)[C@H]3O)ccc(O)c2C(C)=O)cc1OC [SCORZODIHYDROSTILBENE D] | 731 | 
CC(=O)c1c(O[C@@H]2O[C@H](CO)[C@@H](O)[C@H](O)[C@H]2O)ccc(O)c1CCc1ccc(O)cc1 [SCORZODIHYDROSTILBENE C] | 486 | 
COc1ccc(CCc2c(O)ccc(O[C@@H]3O[C@H](CO)[C@@H](O)[C@H](O)[C@H]3O)c2C(C)=O)cc1OC [SCORZODIHYDROSTILBENE B] | 663 | inactive
